Measured values: patent US20210071229A1, “FIBRINOGEN TEST” (DSM IP Assets B.V., priority 2018, published 2021)
Several values for one entry are separate records, joined by “and”; a condition that tells them apart may be missing. Identical values can stand only once. Like-named read-outs stand apart in the source and are kept apart here.

Legend:
batroxobin = batroxobin (Bothrops atrox, UniProt P04971); type: biochemical, Bothrops moojeni
control plasma [1] = experiment: activated Partial Thromboplastin Time (aPTT) clotting test, spiked control plasma, BCS-XP; type: biochemical
control plasma [2] = test system: control plasma

Sequence of batroxobin (P04971 25-255 limits assumed): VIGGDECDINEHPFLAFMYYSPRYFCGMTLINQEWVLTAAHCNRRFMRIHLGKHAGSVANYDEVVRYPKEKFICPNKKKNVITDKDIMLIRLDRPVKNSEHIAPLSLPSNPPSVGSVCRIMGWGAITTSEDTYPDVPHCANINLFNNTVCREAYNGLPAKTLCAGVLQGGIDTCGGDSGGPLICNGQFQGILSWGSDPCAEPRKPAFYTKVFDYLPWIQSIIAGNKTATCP

NCCCCCC(=O)O [6-aminocaproic acid] was tested, and the “effect on enzyme activity of batroxobin vs untreated control” value (batroxobin) was “did not significantly influence the activity” and the “predicted Vmax and Km vs untreated control” value (batroxobin) was “not significantly different”.
In the case of CC1CNc2c(cccc2S(=O)(=O)N[C@@H](CCCNC(=N)N)C(=O)N2CC[C@@H](C)C[C@@H]2C(=O)O)C1 (some centres unmarked) [Argatroban], the “aPTT-test CT” value (control plasma [1]; 0.13 μg/ml in plasma) is reported as 34.62 s, the “aPTT-test Mean” value (control plasma [1]; 0.13 μg/ml in plasma) is reported as 34.62 s and the aPTT-test delay (control plasma [1]; 0.13 μg/ml in plasma) is reported as 8%. The “aPTT-test CT” value (control plasma [1]; 2.0 μg/ml in plasma) was 55.77 s and 55.46 s, the “aPTT-test Mean” value (control plasma [1]; 2.0 μg/ml in plasma) was 55.62 s and the aPTT-test delay (control plasma [1]; 2.0 μg/ml in plasma) was 73%. For the same molecule, the “effect on Vmax of batroxobin-Pefachrome TH substrate” value (batroxobin) was “very slight reduction”, the “effect on enzyme activity of batroxobin” value (batroxobin) was “did not significantly suppress” and the “effect on Km of batroxobin-Pefachrome TH substrate” value (shortened to “effect on Km”) (batroxobin; 0.13-2.0 μg/mL) was “not significantly affected”. The “PT-test CT” value (control plasma [2]; 0.13 μg/ml in plasma) was 10.18 s and 10.21 s, the “PT-test Mean” value (control plasma [2]; 0.13 μg/ml in plasma) was 10.20 s and the PT-test delay (control plasma [2]; 0.13 μg/ml in plasma) was 1%. For the same molecule, the “PT-test CT” value (control plasma [2]; 2.0 μg/ml in plasma) was 12.26 s and 12.24 s, the “PT-test Mean” value (control plasma [2]; 2.0 μg/ml in plasma) was 12.25 s and the PT-test delay (control plasma [2]; 2.0 μg/ml in plasma) was 22%.
For [H]/N=C(/N)c1ccc(NCc2nc3cc(C(=O)N(CCC(=O)O)c4ccccn4)ccc3n2C)cc1 [Dabigatran], the “effect on Km” value (batroxobin; 31-500 ng/mL) was “not significantly affected”.
O=C(O)CN(CCN(CC(=O)O)CC(=O)O)CC(=O)O [EDTA] was tested, and the “interference in batroxobin-Pefachrome TH reaction” value (from here on “interference”) (batroxobin) was “failed to see significant interference”.
For O=C(NC[C@H]1CN(c2ccc(N3CCOCC3=O)cc2)C(=O)O1)c1ccc(Cl)s1 [Rivaroxaban], the “aPTT-test CT” value (control plasma [1]; 38 ng/ml in plasma) was 39.46 s and 39.44 s, the “aPTT-test Mean” value (control plasma [1]; 38 ng/ml in plasma) was 39.45 s and the aPTT-test delay (control plasma [1]; 38 ng/ml in plasma) was 23%. For the same molecule, the “aPTT-test CT” value (control plasma [1]; 600 ng/ml in plasma) was 80.73 s and 80.07 s, the “aPTT-test Mean” value (control plasma [1]; 600 ng/ml in plasma) was 80.40 s and the aPTT-test delay (control plasma [1]; 600 ng/ml in plasma) was 150%. The “effect on Vmax of batroxobin-Pefachrome TH substrate” value (batroxobin) was “very slight reduction”, the “effect on enzyme activity of batroxobin” value (batroxobin) was “did not significantly suppress” and the “effect on Km” value (batroxobin; 38-600 ng/mL) was “not significantly affected”. For the same molecule, the “PT-test CT” value (control plasma [2]; 38 ng/ml in plasma) was 10.74 s and 10.61 s, the “PT-test Mean” value (control plasma [2]; 38 ng/ml in plasma) was 10.68 s and the PT-test delay (control plasma [2]; 38 ng/ml in plasma) was 6%. For the same molecule, the “PT-test CT” value (control plasma [2]; 600 ng/ml in plasma) was 19.42 s and 19.32 s, the “PT-test Mean” value (control plasma [2]; 600 ng/ml in plasma) was 19.37 s and the PT-test delay (control plasma [2]; 600 ng/ml in plasma) was 92%.
aprotinin was tested, and the “effect on enzyme activity of batroxobin vs untreated control” value (batroxobin) was “did not significantly influence the activity” and the “predicted Vmax and Km vs untreated control” value (batroxobin) was “not significantly different”.
For hirudin, the “interference” value (batroxobin) was “failed to see significant interference”.
hydroxyethyl starch [HES] was tested, and the “interference” value (batroxobin) was “failed to see significant interference”.
